Test results reported in patent US8410097B2 (priority 2005, dated 2013).
Where two headings read alike, the source gives them in different places.

Columns and labels:
[1] = target: T1, CB1 cannabinoid receptor (Rattus norvegicus, UniProt P20272); test: biochemical; assay type: binding; conditions: for Ki: rat forebrain membranes; for Selectivity CB1: CB1 over CB2 binding selectivity (ratio of Ki)
T1 construct: membranes were prepared from rat forebrain membranes; from tissue; host or cells: rat forebrain membranes
Procedure: Some of the inventive analogs were tested for CB2 receptor binding affinity and for CB1 receptor affinity (to determine selectivity). […] The lower the Ki value the higher the binding affinity. […]
Membranes, previously frozen at −80° C., were thawed on ice. To the stirred suspension was added three volumes of TME (25 mM Tris-HCl buffer, 5 mM MgCl2 and 1 mM EDTA) at a pH 7.4. The suspension was incubated at 4° C. for 30 min. At the end of the incubation, the membranes were pelleted and washed three times with TME.
(§1) The treated membranes were subsequently used in the binding assay described below. Approximately 30 μg of membranes were incubated in silanized 96-well microtiter plate with TME containing 0.1% essentially fatty acid-free bovine serum albumin (BSA), 0.8 nM [^3H] […] Radioactivity was detected using MicroScint 20 scintillation cocktail added directly to the dried filterplates, and the filterplates were counted using a Packard Instruments Top-Count. […] Data collected from three independent experiments performed with duplicate determinations was normalized between 100% and 0% specific binding for [^3H] […] The normalized data was analyzed using a 4-parameter nonlinear logistic equation to yield IC50 values.

[2] = target: CB2 cannabinoid receptor (Mus musculus, UniProt P47936); test: biochemical; assay type: binding; conditions: mouse spleen membranes
Procedure: Some of the inventive analogs were tested for CB2 receptor binding affinity and for CB1 receptor affinity (to determine selectivity). […] The lower the Ki value the higher the binding affinity.
as §1
Silanized centrifuge tubes were used throughout to minimize receptor loss due to adsorption. The CB2 binding assay was conducted in the same manner as for the CB1 binding assay. The binding affinities (Ki) were also expressed in nanomoles (nM).

[3] = Receptor Affinities Ki (nM) CB1, Table 8
[4] = Table 8, read-out: Receptor Affinities Ki (nM) CB2
[5] = CB1 Ki, Table 7, 0.8 nM [3H] CP-55,940
[6] = Table 7, [3H] CP-55,940, read-out: CB2 Ki
[7] = Receptor Affinities Ki (nM) CB1, Table 10
[8] = Table 10, read-out: Receptor Affinities Ki (nM) CB2
[9] = CB1 Ki, Table 6, 0.8 nM [3H] CP-55,940
[10] = Table 6, [3H] CP-55,940, read-out: CB2 Ki

T1 sequence (P20272 whole entry): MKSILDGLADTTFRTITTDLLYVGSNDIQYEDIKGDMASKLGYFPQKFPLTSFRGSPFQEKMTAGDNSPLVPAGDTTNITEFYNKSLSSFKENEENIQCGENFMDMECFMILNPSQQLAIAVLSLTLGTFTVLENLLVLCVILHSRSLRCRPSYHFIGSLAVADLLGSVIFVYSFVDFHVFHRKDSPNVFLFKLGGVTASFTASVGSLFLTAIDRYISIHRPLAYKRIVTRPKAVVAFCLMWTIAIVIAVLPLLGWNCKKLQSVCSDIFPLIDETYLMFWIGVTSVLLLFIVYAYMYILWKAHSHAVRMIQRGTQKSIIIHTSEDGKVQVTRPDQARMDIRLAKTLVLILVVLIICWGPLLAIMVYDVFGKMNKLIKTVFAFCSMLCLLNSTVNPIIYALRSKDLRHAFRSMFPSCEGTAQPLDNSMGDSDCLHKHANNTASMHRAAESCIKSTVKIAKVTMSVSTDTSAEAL
Sequence of CB2 cannabinoid receptor (P47936 whole entry): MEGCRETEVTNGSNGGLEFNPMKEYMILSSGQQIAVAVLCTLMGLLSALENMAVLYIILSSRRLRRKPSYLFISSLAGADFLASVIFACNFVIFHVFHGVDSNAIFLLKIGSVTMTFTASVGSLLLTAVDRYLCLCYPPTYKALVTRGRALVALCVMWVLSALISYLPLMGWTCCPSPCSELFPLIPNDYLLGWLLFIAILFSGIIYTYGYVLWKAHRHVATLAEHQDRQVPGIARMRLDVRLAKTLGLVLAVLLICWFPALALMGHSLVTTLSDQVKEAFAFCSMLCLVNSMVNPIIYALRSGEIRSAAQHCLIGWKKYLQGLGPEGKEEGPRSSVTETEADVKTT

Row | Structure (SMILES) | Ki [1, 7] [nM] | Selectivity CB1 ([1]; Table 10) | Ki [2, 8] [nM] | Ki [1, 9] [nM] | Ki [2, 10] [nM] | further results
1 | O=C(NN1CCCCC1)c1nn(-c2ccc(Cl)cc2Cl)c(-c2ccc(C#CCO)cc2)c1CO [Compound 3-4] |  |  |  |  |  | Ki [1, 3]: 21 nM; Selectivity CB1 ([1]; Table 8): 15; Ki [2, 4]: 313 nM
2 | Cc1c(C(=O)NN2CCCCC2)nn(-c2ccc(Cl)cc2Cl)c1-c1ccc(C#CCO)cc1 [Compound 2-1, 1-(2,4-Dichloro-phenyl)-5-[4-(3-hydroxy-prop-1-ynyl)-phenyl]-4-methyl-1H-pyrazole-3-carboxylic acid piperidin-1-ylamide] |  |  |  |  |  | Ki [1, 5]: 33.1 nM; Ki [2, 6]: 1490 nM
3 | Cc1c(C(=O)NN2CCCCC2)nn(-c2ccc(Cl)cc2Cl)c1-c1ccc(C#CCN)cc1.Cl [Compound 5-5] | 30 | 1 | 30 |  |  | 
4 | Cc1c(C(=O)NN2CCCCC2)nn(-c2ccc(Cl)cc2Cl)c1-c1ccc(C#CC2(O)CCCCC2)cc1 [Compound 5-7] | 20 | 3.5 | 68 |  |  | 
5 | Cc1c(C(=O)NN2CCCCC2)nn(-c2ccc(Cl)cc2Cl)c1-c1ccc(C#CCCO)cc1 [Compound 2-2] |  |  |  |  |  | Ki [1, 5]: 19.7 nM; Ki [2, 6]: 441 nM
6 | N#CCCC#Cc1ccc(-n2c(-c3ccc(Cl)cc3Cl)nc(C(=O)NN3CCCCC3)c2CO)cc1 [Compound 3-10] |  |  |  |  |  | Ki [1, 3]: 2 nM; Selectivity CB1 ([1]; Table 8): 140; Ki [2, 4]: 279 nM
7 | Cc1c(C(=O)NN2CCCCC2)nn(-c2ccc(Cl)cc2Cl)c1-c1ccc(C#CCN(C)C)cc1 [Compound 5-1] | 51 | 1.5 | 76 |  |  | 
8 | N=C(S)c1ccc(-n2c(-c3ccc(Cl)cc3Cl)nc(C(=O)NN3CCCCC3)c2CO)cc1 [Compound 1-29] |  |  |  | 47.6 | 640 | 
9 | O=C(NC1CCCCC1)c1nc(-c2ccc(Cl)cc2Cl)n(-c2ccc(I)cc2)c1CO [Compound 1-12] |  |  |  | 19 | 22400 | 
10 | O=C(NN1CCCCC1)c1nc(-c2ccc(Cl)cc2Cl)n(-c2ccc(-c3nccs3)cc2)c1CO [Compound 1-30] |  |  |  | 23.9 | 1510 | 
11 | Cc1c(C(=O)N(C)C2CCCCC2)nc(-c2ccc(Cl)cc2Cl)n1-c1ccc(-c2nnn(C)n2)cc1 [Compound 1-24] |  |  |  | 11.2 | 220 | 
12 | [N-]=[N+]=NCc1c(C(=O)NN2CCCCC2)nc(-c2ccc(Cl)cc2Cl)n1-c1ccc(Br)cc1 [Compound 1-41] |  |  |  | 7 | 954 | 
13 | O=C(NC1CCCCC1)c1nc(-c2ccc(Cl)cc2Cl)n(-c2ccc(Br)cc2)c1CO [Compound 1-10] |  |  |  | 4.6 | 3030 | 
14 | Cc1c(C(=O)NN2CCCCC2)nn(-c2ccc(Cl)cc2Cl)c1-c1ccc(C#CCNC(=O)OC(C)(C)C)cc1 [Compound 5-2] | 68 | 1.3 | 88 |  |  | 
15 | Cc1c(C(=O)NN2CCCCC2)nn(-c2ccc(Cl)cc2Cl)c1-c1ccc(C#CCCCN)cc1 [Compound 5-14] | 46 | 20 | 947 |  |  | 
16 | N#CCCC#Cc1ccc(-c2c(CO)c(C(=O)NN3CCCCC3)nn2-c2ccc(Cl)cc2Cl)cc1 [Compound 3-1] |  |  |  |  |  | Ki [1, 3]: 6 nM; Selectivity CB1 ([1]; Table 8): 44; Ki [2, 4]: 265 nM
17 | Cc1c(C(=O)NN2CCCCC2)nn(-c2ccc(Cl)cc2Cl)c1-c1ccc(C#Cc2ccncc2)cc1 [Compound 5-12] | 8 | 52 | 421 |  |  | 
18 | Cc1c(C(=O)NN2CCCCC2)nn(-c2ccc(Cl)cc2Cl)c1-c1ccc(C#CC2(O)CCCC2)cc1 [Compound 5-8] | 9 | 1.5 | 13 |  |  | 
19 | Cc1c(C(=O)NN2CCCCC2)nn(-c2ccc(Cl)cc2Cl)c1-c1ccc(C#CCN=[N+]=[N-])cc1 [Compound 3-3] |  |  |  |  |  | Ki [1, 3]: 3 nM; Selectivity CB1 ([1]; Table 8): 250; Ki [2, 4]: 750 nM
20 | O=C(NN1CCCCC1)c1nc(-c2ccc(Cl)cc2Cl)n(-c2ccc(-c3cccnc3)cc2)c1CO [Compound 1-15] |  |  |  | 23 | 2780 | 
21 | Cc1c(C(=O)NN2CCCCC2)nn(-c2ccc(Cl)cc2Cl)c1-c1ccc(C#CC2CC2)cc1 [Compound 5-6] | 12 | 1.5 | 20 |  |  | 
22 | O=C(NN1CCCCC1)c1nn(-c2ccc(Cl)cc2Cl)c(-c2ccc(C#CCCO)cc2)c1CO [Compound 3-2] |  |  |  |  |  | Ki [1, 3]: 16 nM; Selectivity CB1 ([1]; Table 8): 10; Ki [2, 4]: 165 nM
23 | Cc1c(C(=O)NN2CCCCC2)nc(-c2ccc(Cl)cc2Cl)n1-c1ccc(-c2nnn(C)n2)cc1 [Compound 1-18] |  |  |  | 6.5 | 5080 | 
24 | Cc1c(C(=O)NN2CCCCC2)nc(-c2ccc(Cl)cc2Cl)n1-c1ccc(C#N)cc1 [Compound 1-8] |  |  |  | 57 | 7220 | 
25 | Cc1c(C(=O)NN2CCCCC2)nn(-c2ccc(Cl)cc2Cl)c1-c1ccc(C#Cc2cccnc2)cc1 [Compound 5-10] | 15 | 3.6 | 54 |  |  | 
26 | CN(C(=O)c1nc(-c2ccc(Cl)cc2Cl)n(-c2ccc(Br)cc2)c1CO)C1CCCCC1 [Compound 1-5] |  |  |  | 28.8 | 3780 | 
27 | Cc1c(C(=O)NN2CCCCC2)nn(-c2ccc(Cl)cc2Cl)c1-c1ccc(C#CCN)cc1 [Compound 5-4] | 21 | 2 | 40 |  |  | 
28 | Cc1c(C(=O)N(C)C2CCCCC2)nc(-c2ccc(Cl)cc2Cl)n1-c1ccc(C#CCCO)cc1 [Compound 3-8] |  |  |  |  |  | Ki [1, 3]: 12 nM; Selectivity CB1 ([1]; Table 8): 36; Ki ([2]; Receptor Affinities Ki (nM) CB2, Table 8): 440 nM
29 | Cc1c(C(=O)NN2CCCCC2)nc(-c2ccc(Cl)cc2Cl)n1-c1ccc(I)cc1 [Compound 1-6] |  |  |  | 2.7 | 4310 | 
30 | Cc1c(NC(=O)NC2CCCCC2)nc(-c2ccc(Cl)cc2Cl)n1-c1ccc(I)cc1 [Compound 1-36] |  |  |  | 1.2 | 7240 | 
